{
  "source": "paper PMC10625055",
  "about": "“A novel Bruton's tyrosine kinase inhibitor JDB175 shows potent efficacy to suppress central nervous system lymphoma” (MedComm, 2023)",
  "target": "Bruton's tyrosine kinase (BTK) (Homo sapiens, UniProt Q06187)",
  "sequence (Q06187 2-659)": "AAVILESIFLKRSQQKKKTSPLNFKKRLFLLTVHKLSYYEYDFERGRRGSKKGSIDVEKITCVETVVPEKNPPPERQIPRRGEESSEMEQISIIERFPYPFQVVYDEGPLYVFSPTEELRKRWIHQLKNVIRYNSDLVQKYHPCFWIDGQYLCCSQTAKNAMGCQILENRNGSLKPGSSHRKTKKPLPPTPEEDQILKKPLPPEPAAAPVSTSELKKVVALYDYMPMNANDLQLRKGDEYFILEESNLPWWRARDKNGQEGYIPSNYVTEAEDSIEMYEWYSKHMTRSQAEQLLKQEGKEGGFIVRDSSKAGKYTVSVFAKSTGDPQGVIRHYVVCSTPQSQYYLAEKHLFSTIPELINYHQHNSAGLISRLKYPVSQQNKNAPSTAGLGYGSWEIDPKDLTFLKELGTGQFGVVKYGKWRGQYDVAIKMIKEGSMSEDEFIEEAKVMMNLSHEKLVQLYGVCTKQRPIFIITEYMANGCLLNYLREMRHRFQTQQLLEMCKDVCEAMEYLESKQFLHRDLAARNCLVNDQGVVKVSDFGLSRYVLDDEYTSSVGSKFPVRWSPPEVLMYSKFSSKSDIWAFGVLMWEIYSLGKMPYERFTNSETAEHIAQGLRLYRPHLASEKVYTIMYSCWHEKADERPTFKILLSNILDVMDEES",
  "assay": "radiometric kinase assay, recombinant human kinase",
  "format": "biochemical",
  "data": [
    {"compound": "C=CC(=O)N1CCC[C@@H](c2nn(-c3ccc(Oc4cccc(F)c4F)cc3)c3cncc(F)c23)C1", "note": "[JDB175]", "values": [
      {"measurement": "IC50", "result": 2.1, "unit": "nM"}
    ]}
  ]
}
